Measured values: ChEMBL document CHEMBL1139396, “Novel N9-arenethenyl purines as potent dual Src/Abl tyrosine kinase inhibitors” (Bioorg Med Chem Lett, 2008)

What was measured:
[1] = tested on: K562; test: Cytotoxicity against human K562 cells transfected with wild-type Bcr-Abl
[2] = Volume of distribution at steady state in rat at 5 mg/kg, iv; assay type: ADME, organism-based; parameters: dose 5 mg/kg, route intravenous; settings: in vivo, read-out: Vdss
[3] = Half life in rat at 5 mg/kg, iv; assay type: ADME, organism-based; parameters: dose 5 mg/kg, route intravenous; settings: in vivo
[4] = Cytotoxicity against mouse BA/F3 cells transfected with wild-type Bcr-Abl; settings: BaF3
[5] = Oral bioavailability in rat at 5 mg/kg; assay type: ADME, organism-based; settings: in vivo
[6] = Cmax in rat at 5 mg/kg, iv; assay type: ADME, organism-based; parameters: dose 5 mg/kg, route intravenous; settings: in vivo
[7] = Half life in rat at 5 mg/kg, po; assay type: ADME, organism-based; parameters: dose 5 mg/kg, route oral; settings: in vivo
[8] = Cmax in rat at 5 mg/kg, po; assay type: ADME, organism-based; parameters: dose 5 mg/kg, route oral; settings: in vivo
[9] = molecular target: Proto-oncogene tyrosine-protein kinase Src (Homo sapiens, UniProt P12931); test: Inhibition of human Src kinase by TR-FRET assay
[10] = molecular target: Tyrosine-protein kinase ABL1 (Homo sapiens, UniProt P00519)
[11] = molecular target: RAF proto-oncogene serine/threonine-protein kinase (Homo sapiens, UniProt P04049); test: Inhibition of c-Raf
[12] = molecular target: Vascular endothelial growth factor receptor 1 (Homo sapiens, UniProt P17948); test: Inhibition of Flt1
[13] = molecular target: Macrophage colony-stimulating factor 1 receptor (Homo sapiens, UniProt P07333)
[14] = molecular target: Insulin receptor (Homo sapiens, UniProt P06213); test: Inhibition of InsR
[15] = molecular target: Ephrin type-A receptor 7 (Homo sapiens) (UniProt Q15375); test: Inhibition of EphA7
[16] = molecular target: Platelet-derived growth factor receptor alpha (Homo sapiens, UniProt P16234); test: Inhibition of PDGFRalpha
[17] = molecular target: Mast/stem cell growth factor receptor Kit (Homo sapiens, UniProt P10721); test: Inhibition of Kit
[18] = molecular target: T1, Ephrin type-B receptor 4 (Homo sapiens, UniProt P54760); test: Inhibition of EphB4
T1 sequence (P54760 whole entry): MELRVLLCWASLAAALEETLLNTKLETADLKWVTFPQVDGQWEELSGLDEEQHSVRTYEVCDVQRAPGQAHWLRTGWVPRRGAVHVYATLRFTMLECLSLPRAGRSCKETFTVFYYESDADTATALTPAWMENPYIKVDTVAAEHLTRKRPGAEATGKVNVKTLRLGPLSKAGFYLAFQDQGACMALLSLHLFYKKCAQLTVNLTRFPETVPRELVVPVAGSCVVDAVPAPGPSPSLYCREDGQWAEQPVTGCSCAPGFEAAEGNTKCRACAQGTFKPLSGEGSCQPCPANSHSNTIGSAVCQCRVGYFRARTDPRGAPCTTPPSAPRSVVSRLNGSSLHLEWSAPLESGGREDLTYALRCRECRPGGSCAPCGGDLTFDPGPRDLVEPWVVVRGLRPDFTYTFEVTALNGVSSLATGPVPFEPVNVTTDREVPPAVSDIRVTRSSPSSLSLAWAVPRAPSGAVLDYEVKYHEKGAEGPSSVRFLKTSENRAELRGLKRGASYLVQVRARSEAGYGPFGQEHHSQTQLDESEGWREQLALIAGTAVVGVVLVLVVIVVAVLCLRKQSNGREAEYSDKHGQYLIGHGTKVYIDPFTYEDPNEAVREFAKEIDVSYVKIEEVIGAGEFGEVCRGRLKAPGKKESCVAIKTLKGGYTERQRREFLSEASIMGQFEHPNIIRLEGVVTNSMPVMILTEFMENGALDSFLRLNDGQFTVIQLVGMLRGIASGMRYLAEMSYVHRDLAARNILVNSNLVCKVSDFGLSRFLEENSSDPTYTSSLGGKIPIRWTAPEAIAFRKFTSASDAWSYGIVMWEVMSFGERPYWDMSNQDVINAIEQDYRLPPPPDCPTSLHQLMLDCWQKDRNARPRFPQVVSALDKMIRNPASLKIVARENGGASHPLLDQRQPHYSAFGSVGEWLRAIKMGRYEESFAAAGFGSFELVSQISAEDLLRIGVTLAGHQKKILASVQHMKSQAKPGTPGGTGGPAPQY

[19] = molecular target: Cyclin-dependent kinase 2 (Homo sapiens, UniProt P24941); test: Inhibition of CDK2/CyclinA
[20] = molecular target: Vascular endothelial growth factor receptor 3 (Homo sapiens, UniProt P35916); test: Inhibition of Flt4
[21] = molecular target: T2, Ephrin type-B receptor 1 (Homo sapiens, UniProt P54762); test: Inhibition of EphB1
T2 sequence (P54762 whole entry): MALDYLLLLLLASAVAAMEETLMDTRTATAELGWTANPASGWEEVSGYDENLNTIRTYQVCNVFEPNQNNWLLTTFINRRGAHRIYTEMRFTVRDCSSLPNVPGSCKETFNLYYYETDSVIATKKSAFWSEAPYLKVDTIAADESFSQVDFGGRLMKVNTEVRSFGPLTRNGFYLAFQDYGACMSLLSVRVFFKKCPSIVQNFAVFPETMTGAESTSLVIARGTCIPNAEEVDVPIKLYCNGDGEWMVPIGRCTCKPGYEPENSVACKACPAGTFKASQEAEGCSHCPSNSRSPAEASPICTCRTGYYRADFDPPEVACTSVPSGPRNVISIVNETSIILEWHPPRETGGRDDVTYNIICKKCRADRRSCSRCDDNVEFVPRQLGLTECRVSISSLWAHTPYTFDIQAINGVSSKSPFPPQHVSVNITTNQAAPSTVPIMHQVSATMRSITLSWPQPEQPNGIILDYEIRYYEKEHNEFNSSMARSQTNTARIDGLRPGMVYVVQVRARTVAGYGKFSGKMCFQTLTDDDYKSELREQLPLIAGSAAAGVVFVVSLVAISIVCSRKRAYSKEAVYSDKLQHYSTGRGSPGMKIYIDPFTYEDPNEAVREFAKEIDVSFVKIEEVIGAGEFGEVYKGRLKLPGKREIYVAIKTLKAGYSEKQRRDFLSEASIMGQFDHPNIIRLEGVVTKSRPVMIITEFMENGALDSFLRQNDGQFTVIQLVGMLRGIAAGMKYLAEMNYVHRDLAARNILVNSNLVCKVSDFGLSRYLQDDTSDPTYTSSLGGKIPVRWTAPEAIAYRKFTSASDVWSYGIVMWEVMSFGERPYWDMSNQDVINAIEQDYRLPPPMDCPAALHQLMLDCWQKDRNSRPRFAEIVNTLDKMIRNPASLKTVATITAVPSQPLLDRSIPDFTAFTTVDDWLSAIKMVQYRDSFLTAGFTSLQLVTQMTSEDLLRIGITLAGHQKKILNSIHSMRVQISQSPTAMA

[22] = Inhibition of Aurora kinase
[23] = Inhibition of Abl […] mutant

Proto-oncogene tyrosine-protein kinase Src, sequence (P12931 2-536 limits assumed): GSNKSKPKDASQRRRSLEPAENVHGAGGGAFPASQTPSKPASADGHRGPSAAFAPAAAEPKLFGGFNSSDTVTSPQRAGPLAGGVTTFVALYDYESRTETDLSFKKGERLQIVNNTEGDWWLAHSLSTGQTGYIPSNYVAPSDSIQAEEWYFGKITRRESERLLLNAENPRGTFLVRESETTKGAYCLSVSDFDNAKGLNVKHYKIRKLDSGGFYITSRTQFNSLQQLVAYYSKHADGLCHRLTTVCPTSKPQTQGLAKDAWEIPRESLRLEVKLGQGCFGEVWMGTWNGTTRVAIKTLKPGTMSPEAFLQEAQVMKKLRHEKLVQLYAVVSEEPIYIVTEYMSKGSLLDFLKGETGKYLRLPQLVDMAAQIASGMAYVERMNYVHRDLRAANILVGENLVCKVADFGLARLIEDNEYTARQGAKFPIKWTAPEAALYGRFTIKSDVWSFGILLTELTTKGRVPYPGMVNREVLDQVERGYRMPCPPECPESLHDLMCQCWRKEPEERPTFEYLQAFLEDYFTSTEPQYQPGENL
Tyrosine-protein kinase ABL1, sequence (P00519 whole entry): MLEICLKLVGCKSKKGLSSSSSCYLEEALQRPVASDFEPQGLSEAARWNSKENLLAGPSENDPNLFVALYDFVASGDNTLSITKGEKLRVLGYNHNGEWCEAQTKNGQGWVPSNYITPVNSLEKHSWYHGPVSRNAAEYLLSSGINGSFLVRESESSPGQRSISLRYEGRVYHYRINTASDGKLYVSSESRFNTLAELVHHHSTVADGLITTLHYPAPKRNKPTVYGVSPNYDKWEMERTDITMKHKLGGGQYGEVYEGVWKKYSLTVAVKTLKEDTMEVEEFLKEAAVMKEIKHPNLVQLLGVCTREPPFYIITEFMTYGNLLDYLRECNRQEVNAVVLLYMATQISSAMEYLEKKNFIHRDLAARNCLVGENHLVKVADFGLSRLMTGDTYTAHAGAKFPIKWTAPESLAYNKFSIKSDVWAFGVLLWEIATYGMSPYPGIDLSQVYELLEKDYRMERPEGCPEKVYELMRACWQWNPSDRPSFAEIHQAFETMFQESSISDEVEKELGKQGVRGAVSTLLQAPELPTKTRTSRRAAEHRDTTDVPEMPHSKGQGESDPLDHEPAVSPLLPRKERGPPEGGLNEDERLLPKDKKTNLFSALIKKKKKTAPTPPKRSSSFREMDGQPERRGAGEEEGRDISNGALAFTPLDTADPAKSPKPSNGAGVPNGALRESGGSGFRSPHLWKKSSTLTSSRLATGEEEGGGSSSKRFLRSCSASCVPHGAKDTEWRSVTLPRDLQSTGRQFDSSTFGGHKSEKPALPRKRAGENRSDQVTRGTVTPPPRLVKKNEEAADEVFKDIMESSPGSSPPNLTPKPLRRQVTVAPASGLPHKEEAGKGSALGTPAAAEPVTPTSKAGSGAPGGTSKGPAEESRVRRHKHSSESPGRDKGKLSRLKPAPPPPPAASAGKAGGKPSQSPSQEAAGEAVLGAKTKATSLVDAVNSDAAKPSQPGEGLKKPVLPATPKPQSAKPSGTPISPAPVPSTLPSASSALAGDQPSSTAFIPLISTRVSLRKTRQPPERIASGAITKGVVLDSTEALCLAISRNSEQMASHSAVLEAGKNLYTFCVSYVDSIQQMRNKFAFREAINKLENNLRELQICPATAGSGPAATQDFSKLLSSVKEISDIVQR
Vascular endothelial growth factor receptor 3, sequence (P35916 whole entry): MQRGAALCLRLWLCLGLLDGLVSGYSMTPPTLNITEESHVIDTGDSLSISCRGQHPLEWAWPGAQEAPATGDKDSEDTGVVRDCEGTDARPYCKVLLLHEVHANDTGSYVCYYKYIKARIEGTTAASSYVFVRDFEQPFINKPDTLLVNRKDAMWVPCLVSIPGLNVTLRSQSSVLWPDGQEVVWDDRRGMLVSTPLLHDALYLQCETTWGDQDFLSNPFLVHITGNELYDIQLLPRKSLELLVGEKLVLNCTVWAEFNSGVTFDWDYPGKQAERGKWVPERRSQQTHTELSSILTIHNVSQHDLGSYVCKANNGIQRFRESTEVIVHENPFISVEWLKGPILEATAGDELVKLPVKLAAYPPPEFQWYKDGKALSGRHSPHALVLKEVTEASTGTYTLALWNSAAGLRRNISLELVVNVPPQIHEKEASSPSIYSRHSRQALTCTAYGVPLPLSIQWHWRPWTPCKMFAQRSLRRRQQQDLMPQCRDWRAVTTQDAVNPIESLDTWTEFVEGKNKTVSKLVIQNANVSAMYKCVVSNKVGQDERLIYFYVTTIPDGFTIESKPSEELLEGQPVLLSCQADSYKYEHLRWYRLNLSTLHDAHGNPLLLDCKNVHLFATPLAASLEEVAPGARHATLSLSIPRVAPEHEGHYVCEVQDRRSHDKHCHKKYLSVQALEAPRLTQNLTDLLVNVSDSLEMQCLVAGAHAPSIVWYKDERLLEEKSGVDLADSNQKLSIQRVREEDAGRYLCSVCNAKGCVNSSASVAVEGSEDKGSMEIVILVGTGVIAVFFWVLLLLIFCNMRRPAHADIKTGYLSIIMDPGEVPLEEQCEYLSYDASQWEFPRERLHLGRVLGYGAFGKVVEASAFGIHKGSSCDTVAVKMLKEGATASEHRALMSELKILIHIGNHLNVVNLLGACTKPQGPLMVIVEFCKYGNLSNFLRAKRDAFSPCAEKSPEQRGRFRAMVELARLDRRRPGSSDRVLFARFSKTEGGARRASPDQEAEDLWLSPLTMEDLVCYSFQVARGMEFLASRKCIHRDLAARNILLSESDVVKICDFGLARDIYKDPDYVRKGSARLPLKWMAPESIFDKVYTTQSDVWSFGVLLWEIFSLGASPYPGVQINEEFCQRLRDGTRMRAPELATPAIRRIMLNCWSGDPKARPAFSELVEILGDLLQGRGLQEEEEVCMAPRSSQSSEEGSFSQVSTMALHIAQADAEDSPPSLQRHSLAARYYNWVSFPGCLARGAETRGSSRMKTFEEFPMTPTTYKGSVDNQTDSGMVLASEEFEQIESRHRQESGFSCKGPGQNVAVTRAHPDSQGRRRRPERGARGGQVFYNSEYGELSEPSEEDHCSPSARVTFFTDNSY
Insulin receptor, sequence (P06213 28-758 limits assumed): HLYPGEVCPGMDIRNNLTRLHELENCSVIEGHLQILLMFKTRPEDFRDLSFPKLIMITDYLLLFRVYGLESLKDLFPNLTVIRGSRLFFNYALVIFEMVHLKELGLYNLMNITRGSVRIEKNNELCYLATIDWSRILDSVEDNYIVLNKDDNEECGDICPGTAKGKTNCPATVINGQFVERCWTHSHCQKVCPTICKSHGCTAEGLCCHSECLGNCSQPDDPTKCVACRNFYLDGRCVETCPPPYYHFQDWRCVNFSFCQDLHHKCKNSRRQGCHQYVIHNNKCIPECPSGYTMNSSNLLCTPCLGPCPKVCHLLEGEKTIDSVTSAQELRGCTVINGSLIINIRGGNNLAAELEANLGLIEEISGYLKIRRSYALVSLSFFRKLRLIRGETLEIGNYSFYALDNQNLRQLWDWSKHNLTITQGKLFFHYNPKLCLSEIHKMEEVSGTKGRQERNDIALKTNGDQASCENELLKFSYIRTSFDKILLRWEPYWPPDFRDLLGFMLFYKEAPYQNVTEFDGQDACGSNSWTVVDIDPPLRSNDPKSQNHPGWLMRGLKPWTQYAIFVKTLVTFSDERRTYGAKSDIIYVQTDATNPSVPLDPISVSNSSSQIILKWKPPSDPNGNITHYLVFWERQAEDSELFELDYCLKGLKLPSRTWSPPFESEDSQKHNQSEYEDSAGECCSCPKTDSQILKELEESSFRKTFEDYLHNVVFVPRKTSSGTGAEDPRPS
Insulin receptor, sequence (P06213 763-1382 limits assumed): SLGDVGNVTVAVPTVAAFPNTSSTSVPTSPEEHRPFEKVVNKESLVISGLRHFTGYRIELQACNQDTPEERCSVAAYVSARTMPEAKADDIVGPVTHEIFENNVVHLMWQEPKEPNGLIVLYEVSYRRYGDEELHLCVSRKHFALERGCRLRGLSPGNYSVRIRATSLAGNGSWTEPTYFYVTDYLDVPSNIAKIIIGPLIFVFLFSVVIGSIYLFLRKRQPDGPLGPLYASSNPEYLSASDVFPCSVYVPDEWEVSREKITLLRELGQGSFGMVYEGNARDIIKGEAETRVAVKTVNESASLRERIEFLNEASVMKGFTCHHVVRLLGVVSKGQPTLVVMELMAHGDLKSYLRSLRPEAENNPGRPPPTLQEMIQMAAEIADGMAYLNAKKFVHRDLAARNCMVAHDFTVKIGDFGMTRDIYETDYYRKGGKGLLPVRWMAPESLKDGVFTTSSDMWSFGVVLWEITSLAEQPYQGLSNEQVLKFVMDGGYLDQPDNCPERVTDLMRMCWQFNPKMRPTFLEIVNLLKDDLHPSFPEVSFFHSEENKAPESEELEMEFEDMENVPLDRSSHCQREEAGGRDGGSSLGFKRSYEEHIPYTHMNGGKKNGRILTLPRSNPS
RAF proto-oncogene serine/threonine-protein kinase, sequence (P04049 whole entry): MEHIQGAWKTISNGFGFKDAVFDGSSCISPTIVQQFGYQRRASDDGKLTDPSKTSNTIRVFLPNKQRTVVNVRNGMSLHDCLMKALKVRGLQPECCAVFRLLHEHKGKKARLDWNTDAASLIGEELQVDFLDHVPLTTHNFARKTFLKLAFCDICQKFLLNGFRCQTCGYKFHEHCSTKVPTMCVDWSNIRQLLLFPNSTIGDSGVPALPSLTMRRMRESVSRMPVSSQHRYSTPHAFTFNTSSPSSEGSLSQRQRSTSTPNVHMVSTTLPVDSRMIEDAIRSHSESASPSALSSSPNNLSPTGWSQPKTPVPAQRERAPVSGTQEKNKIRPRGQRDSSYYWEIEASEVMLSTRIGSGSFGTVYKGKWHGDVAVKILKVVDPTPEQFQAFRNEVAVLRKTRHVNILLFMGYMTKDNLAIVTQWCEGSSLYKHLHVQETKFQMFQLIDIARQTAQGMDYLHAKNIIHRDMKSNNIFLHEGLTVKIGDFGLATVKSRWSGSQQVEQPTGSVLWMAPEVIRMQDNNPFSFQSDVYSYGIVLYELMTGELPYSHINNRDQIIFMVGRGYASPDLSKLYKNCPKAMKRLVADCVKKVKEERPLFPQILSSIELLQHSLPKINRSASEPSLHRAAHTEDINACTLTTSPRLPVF

SMILES	IC50 [1] [nM]	IC50 [4] [nM]	IC50 [9] [nM]	IC50 [10] [nM]	also measured
CCCP(=O)(CCC)c1ccc(Nc2ncnc3c2ncn3/C=C/c2c(C)cccc2C)cc1	368	286	–	–	Vd [2]: 2.7 L/kg; half-life [3]: 1.2 h; bioavailability [5]: 0%; Cmax [6]: 5140 ng/mL
Cc1cccc(Cl)c1/C=C/n1cnc2c(Nc3ccc(P(C)(C)=O)cc3)ncnc21	109	200	–	–	half-life [7]: 3.3 h; Cmax [8]: 1680 ng/mL; Vd [2]: 2.74 L/kg; half-life [3]: 2.74 h; bioavailability [5]: 17%; Cmax [6]: 4590 ng/mL
CP(C)(=O)c1ccc(Nc2ncnc3c2ncn3/C=C/c2ccccc2Cl)cc1	1390	2010	–	–	–
Cc1cccc(C)c1/C=C/n1cnc2c(Nc3ccc(P(C)(C)=O)cc3)nc(N(C)C)nc21	217	269	–	–	–
Cc1cccc(C)c1/C=C/n1cnc2c(Nc3ccc(P(C)(C)=O)cc3)nc(C3CCN(C)CC3)nc21	28	285	< 0.46	< 0.46	–
Cc1cccc(C)c1/C=C/n1cnc2c(Nc3ccc(P(C)(C)=O)cc3)nc(Oc3cccnc3)nc21	8.5	35.1	< 0.46	0.5	–
Cc1cccc(C)c1/C=C/n1cnc2c(Nc3ccc(P(C)(C)=O)cc3)nc(N3CCN(C)CC3)nc21	23.5	73.7	< 0.23	6.8	–
Cc1cccc(C)c1/C=C/n1cnc2c(Nc3ccc(P(C)(C)=O)cc3)nc(N3CCCC3)nc21	89.1	123	–	–	–
Cc1cccc(C)c1/C=C/n1cnc2c(Nc3ccc(P(C)(C)=O)cc3)nc(C3CCCC3)nc21	224	–	–	–	–
Cc1ccc2[nH]ncc2c1/C=C/n1cnc2c(Nc3ccc(P(C)(C)=O)cc3)ncnc21	10.5	37.3	< 0.46	< 0.46	Cmax [8]: 22 ng/mL; Vd [2]: 1.9 L/kg; half-life [3]: 1.2 h; bioavailability [5]: 0%; Cmax [6]: 7080 ng/mL
CCCP(=O)(CCC)c1ccc(Nc2nc(C(C)C)nc3c2ncn3/C=C\c2ccccc2)cc1	> 1000	–	–	–	–
CCCP(=O)(CCC)c1ccc(Nc2nc(C(C)C)nc3c2ncn3/C=C/c2ccccc2)cc1	> 1000	–	–	–	–
Cc1cccc(C)c1/C=C/n1cnc2c(Nc3ccc(P(C)(C)=O)cc3)nc(C(C)C)nc21	22.7	27.1	–	–	half-life [7]: 5.1 h; Cmax [8]: 478 ng/mL; Vd [2]: 5.4 L/kg; half-life [3]: 7.5 h; bioavailability [5]: 25%; Cmax [6]: 1220 ng/mL
Cc1cccc(C)c1/C=C/n1cnc2c(Nc3ccc(P(C)(C)=O)cc3)nc(N3CCOCC3)nc21	–	20.8	< 0.23	3.02	–
COc1nc(Nc2ccc(P(C)(C)=O)cc2)c2ncn(/C=C/c3c(C)cccc3C)c2n1	52.4	32.7	< 0.46	1.8	–
CCCP(=O)(CCC)c1ccc(Nc2nc(C(C)C)nc3c2ncn3/C=C\c2c(C)cccc2C)cc1	964	–	–	–	–
Cc1cccc(C)c1/C=C/n1cnc2c(Nc3ccc(P(C)(C)=O)cc3)nc(-n3ccnc3)nc21	53.7	–	< 0.46	1.63	–
Cc1cccc(C)c1/C=C/n1cnc2c(Nc3ccc(P(C)(C)=O)cc3)ncnc21	109	168	8.31	3.58	IC50 [11]: 21 nM; IC50 [12]: 591 nM; half-life [7]: 5 h; IC50 [13]: 3 nM; IC50 [14]: > 1000 nM; IC50 [15]: > 1000 nM; Cmax [8]: 1280 ng/mL; IC50 [16]: 221 nM; IC50 [17]: 414 nM; Vd [2]: 0.98 L/kg; IC50 [18]: 30 nM; IC50 [19]: > 1000 nM; IC50 [20]: 151 nM; IC50 [21]: 6 nM; half-life [3]: 3.93 h; IC50 [22]: > 1000 nM; IC50 [23]: > 1000 nM; bioavailability [5]: 20%; Cmax [6]: 4320 ng/mL
CP(C)(=O)c1ccc(Nc2ncnc3c2ncn3/C=C/c2cccc3[nH]ncc23)cc1	355	850	–	–	–
CCCP(=O)(CCC)c1ccc(Nc2nc(C(C)C)nc3c2ncn3/C=C/c2c(C)cccc2C)cc1	115	122	–	–	–
COCCOc1nc(Nc2ccc(P(C)(C)=O)cc2)c2ncn(/C=C/c3c(C)cccc3C)c2n1	26.7	51.7	< 0.46	1.57	–
Cc1cccc(C)c1/C=C/n1cnc2c(Nc3ccc(P(C)(C)=O)cc3)nc(CCC#N)nc21	15.8	38.6	< 0.46	< 0.46	–
Cc1cccc(C)c1/C=C/n1cnc2c(Nc3ccc(P(C)(C)=O)cc3)nc(OC(C)C)nc21	40.6	34.8	< 0.46	7.32	–
CP(C)(=O)c1ccc(Nc2ncnc3c2ncn3/C=C/c2cccc3[nH]ccc23)cc1	954	1540	–	–	–
